Laboratory results taken from patent publication US20250034523A1, “METHODS OF GENERATING HUMAN COCHLEAR HAIR CELLS” (THE TRUSTEES OF INDIANA UNIVERSITY, priority 2021, published 2025).

How the values were obtained:
[1] = system: hair cells in hESC-derived inner ear organoids; assay: PRESTIN immunohistochemistry of hair cells in hESC-derived inner ear organoids; assay type: cell-based, human; details: for PRESTIN expression / number of Prestin positive HCs: 250 ng/ml thyroxine, about day 50 to about day 100
Protocol: PAX2-2A-nGFP/POU4F3-2A-ntdTomat hESCs (passages 22-50) were maintained and passaged in Essential 8 Flex Medium (Thermo Fisher, A2858501) supplemented with 100 μg/ml Normocin (E8fn) on recombinant human Vitronectin-N(Thermo Fisher, A14700)-coated 6-well plates. Human inner ear organoids were derived from hESCs based on the inventors' previous protocol 8.10 with major modifications. Briefly, hESCs were dissociated with StemPro Accutase (Thermo Fisher, A1110501) and distributed at 3500 cells per well onto low-adhesion 96-well U-bottom plates in 100 μL E8fn containing 20 μM Y-27632 (Stemgent, 04-0012-02) and forcibly aggregated at 120 g for 5 minutes. 100 μL of E8fn was added to each well after >4 h of incubation. Induction of non-neural epithelium occurred following 48 h of aggregation, marking differentiation day 0, as follows: aggregates were washed extensively in DMEM:F12 with HEPES buffer (DFH) (Thermo Fisher, 11320033) and transferred to new 96-well U-bottom plates in 100 μL of E6 medium (Thermo Fisher, A1516401) with Normocin (E6n) containing 4 ng mL^−1 FGF-2 (StemCell Technologies, 780003), 10 μM SB-431542 (Stemgent, 04-0010-05), and 2% growth factor reduced (GFR) Matrigel (Corning, 354230). On day 3 of differentiation, 25 μL of E6n containing 50 ng/ml FGF-2 and 200 nM LDN-193189 (Stemgent, 04-0074-02) was added to each well. Culture medium was changed on days 7 and 9 with Eon containing 3 μM CHIR 99021 (Reprocell, 04-0004-10), 200 nM LDN, and 50 ng/mL FGF-2. On day 11, aggregates were washed and transferred to a Nunc Delta surface 6-well culture dish in Organoid Maturation Medium (OMM) containing 1% GFR Matrigel and 3 μM CHIR99021. OMM consists of a 50:50 mixture of Advanced DMEM:F12 (Thermo Fisher, 12634028) and Neurobasal Medium (Thermo Fisher, 21103049) supplemented with 0.5×N2 Supplement (Thermo Fisher, 17502048), 0.5×B27 minus Vitamin A (Thermo Fisher, 12587010), 1× GlutaMAX (Thermo Fisher, 35050061), 0.1 mM β-Mercaptoethanol (Thermo Fisher, 21985023), and Normocin. Control cultures were maintained in OMM+3 μM CHIR99021 until day 18 with media changes on days 13 and 15, then OMM for the remainder of the culture. Treatment cultures were supplemented with 1 μM Purmorphamine (Stemgent, 04-0009) from days 13-22, and IWP-2 (Tocris, 3533) from days 18-22, with media changes on days 15,18, and 20, then maintained in OMM for the remainder of the culture.
Aggregates were fixed with 4% paraformaldehyde for 30 min at room temperature or at 4° C. overnight. […]
Treated and control samples were processed for immunostaining simultaneously using identical reagents and protocols for each comparison. […] Raw images were analysed using Nikon GI3 suite or exported in TIFF format and analysed using ImageJ. […]

[2] = system: PAX2-2A-nGFP/POU4F3-2A-ntdTomato hESC-derived aggregates; assay: derivation of POU4F3+ hair cells (POU4F3-ntdTomato reporter); assay type: cell-based, human
Protocol: To build a PAX2-2A-nGFP/POU4F3-2A-ntdTomato multiplex reporter cell line, the POU4F3-2A-ntdTomato knockin CRISPR was performed on the PAX2-2A-nGFP genetic background. The POU4F3-2A-tdTomato-nls-bGH polyA-frt-PGK-Puro-pA-frt donor plasmid was constructed by connecting the following DNA fragments via Gibson assembly: Two 1 kb homology arms flanking the POU4F3 stop codon amplified from WA25 genomic DNA, 2A-tdTomato gBlock DNA, nls-stop-bGH pA gBlock DNA, frt-PGK-Puro-frt gBlock DNA (IDT), and a linearized pUC19 backbone. The completed donor plasmid was transfected into the PAX2-2A-nGFP parental hES cell line along with a ribonucleoprotein complex composed of a synthetic sgRNA (5′-[…]-3′ (SEQ ID NO: 30)) (Synthego) targeting the POU4F3 stop codon locus, and a high fidelity Cas9 protein (HiFi Cas9 v3, IDT). The transfection was also performed with a 4D Nucleofector (Lonza) using the P3 Primary Cell 4D-Nucleofector X kit and Program CB-150. After nucleofection, cells were plated in E8fn medium containing 1× RevitaCell (Thermo Fisher) and 1 μM of Scr7 (Xcessbio). 0.5 μg/mL puromycin selection was performed for 9 days starting from 48 h post-nucleofection. The frt-flanked PGK-Puro cassette was removed via FLPo transfection (Addgene #13793). Clonal cell line isolation and genotyping procedures were the same as PAX2-2A-nGFP CRISPR. […]

**Q.** Which “PRESTIN expression / number of Prestin positive HCs” value ([1]; listed as Thyroxine) does the source give for `N[C@@H](Cc1cc(I)c(Oc2cc(I)c(O)c(I)c2)c(I)c1)C(=O)O` [T4, thyroxine] here?
**A.** The value was “increases”.

**Q.** What about the “PRESTIN expression / number of Prestin positive HCs” value ([1]; listed as thyroxine) of the same molecule?
**A.** The value was “increased PRESTIN expression”.

**Q.** What about the “SOX2 expression in HCs” value ([1]; T4 treated cochlear organoid cultures) of the same molecule?
**A.** Its value is “downregulated”.

**Q.** And the “PRESTIN+HCs” value ([1]; cochlear organoid cultures, 250 ng/ml T4 from culture day 50 until D100, read at D100)?
**A.** The value was roughly 80%.

**Q.** How did the “efficacy in deriving POU4F3+ hair cells” value ([2]; 10 μM H89 alone or combined with PUR / PUR+IWP2, D102) turn out when `Cl.Cl.O=S(=O)(NCCNCC=Cc1ccc(Br)cc1)c1cccc2cnccc12` [H89] was run?
**A.** Its value is “none of these treatments were efficacious”.

B1: BMP-4: recombinant bone morphogenic protein applied on day 0 (protein, UniProt P12644 293-408, looked up)
Bone morphogenetic protein 4: SPKHHSQRARKKNKNCRRHSLYVDFSDVGWNDWIVAPPGYQAFYCHGDCPFPLADHLNSTNHAIVQTLVNSVNSSIPKACCVPTELSAISMLYLDEYDKVVLKNYQEMVVEGCGCR
**Q.** Which “proportion of POU4F3 cells” value ([2]; BMP-4 applied on day 0, read at D55) does the source give for B1 here?
**A.** Its value is “increases”.
